Test results: ChEMBL document CHEMBL5463723, “Data for DCP probe BIBO3304” (2023); call rule not given here

Assays:
[1] = biological target: hERG (KCNH2) (Homo sapiens, UniProt Q12809); experiment: Inhibitor of HERG_DOFETILIDE in the Eurofins Cerep SafetyScreen44 (BI) by Scintillation counting (Cerep_4094); set-up: scale not given: the % may be the effect or the level left; settings: probe [3H] dofetilide, compound concentration 10 uM, read-out: % Ctrl
[2] = biological target: Serotonin 1 (5-HT1) receptor (Rattus norvegicus) (UniProt P28564+P30940+P19327+P28565); experiment: Activity against 5HT1/R in the Eurofins Panlabs screen (BI) by Radioactive Assay; assay type: protein assay; settings: Compound concentration 10.0 uM
[3] = species: Homo sapiens; experiment: Agonist activity in the Eurofins Cerep SafetyScreen44 (BI) against N_NEURO_A4B2 by Radioligand Binding (Cerep_3029); assay type: protein-complex assay; settings: Compound concentration 10.0 uM
[4] = biological target: Alpha-2B adrenergic receptor (Rattus norvegicus) (UniProt P19328); experiment: Activity against ALPHA2B/R in the Eurofins Panlabs screen (BI); settings: Compound concentration 10.0 uM
Sequence of Alpha-2B adrenergic receptor (Rattus norvegicus) (P19328 whole entry): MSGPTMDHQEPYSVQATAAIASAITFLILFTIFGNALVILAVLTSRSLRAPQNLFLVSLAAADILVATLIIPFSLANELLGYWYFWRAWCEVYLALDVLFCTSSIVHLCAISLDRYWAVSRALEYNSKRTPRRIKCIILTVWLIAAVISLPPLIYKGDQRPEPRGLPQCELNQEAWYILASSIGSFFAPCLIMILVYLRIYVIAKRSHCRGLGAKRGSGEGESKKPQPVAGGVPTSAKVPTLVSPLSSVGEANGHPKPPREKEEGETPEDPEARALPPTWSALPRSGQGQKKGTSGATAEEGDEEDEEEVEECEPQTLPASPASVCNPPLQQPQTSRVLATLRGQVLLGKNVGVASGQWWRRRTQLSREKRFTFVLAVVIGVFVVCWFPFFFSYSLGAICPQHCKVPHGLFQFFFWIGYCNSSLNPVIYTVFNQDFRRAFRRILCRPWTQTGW

[5] = biological target: Serotonin 2 (5-HT2) receptor (Rattus norvegicus) (UniProt P30994+P08909+P14842); experiment: Activity against 5HT2/R in the Eurofins Panlabs screen (BI) by Radioactive Assay; assay type: protein assay; settings: Compound concentration 10.0 uM
[6] = biological target: 3',5'-cyclic-AMP phosphodiesterase 4D (Homo sapiens) (UniProt Q08499); experiment: Inhibitor of PDE4D2 in the Eurofins Cerep SafetyScreen44 (BI) by Scintillation counting (Cerep_4077); settings: Compound concentration 10.0 uM
[7] = biological target: Tumor necrosis factor (Homo sapiens) (UniProt P01375); experiment: Activity against TNFA/HU/HELA in the Eurofins Panlabs screen (BI) by Radioactive Assay; settings: Compound concentration 10.0 uM
[8] = biological target: Alpha-2A adrenergic receptor (Homo sapiens) (UniProt P08913); experiment: Inhibitor of ALPHA2A/HU in the Eurofins Cerep SafetyScreen44 (BI) by Radioactive Assay (Cerep_13); settings: Compound concentration 10.0 uM
Sequence of Alpha-2A adrenergic receptor (Homo sapiens) (P08913 whole entry): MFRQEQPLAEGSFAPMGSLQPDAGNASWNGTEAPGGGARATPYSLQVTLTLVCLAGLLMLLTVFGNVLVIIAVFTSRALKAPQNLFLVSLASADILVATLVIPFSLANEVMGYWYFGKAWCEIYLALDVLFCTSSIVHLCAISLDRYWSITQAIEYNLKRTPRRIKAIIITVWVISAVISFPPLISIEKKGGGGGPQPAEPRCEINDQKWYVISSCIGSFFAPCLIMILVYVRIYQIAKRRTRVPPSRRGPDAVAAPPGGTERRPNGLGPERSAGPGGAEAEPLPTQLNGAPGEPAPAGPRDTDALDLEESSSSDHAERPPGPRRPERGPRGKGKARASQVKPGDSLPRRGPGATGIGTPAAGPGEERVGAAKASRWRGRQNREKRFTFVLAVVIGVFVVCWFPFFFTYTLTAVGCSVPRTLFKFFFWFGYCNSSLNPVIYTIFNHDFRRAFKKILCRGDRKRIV

[9] = biological target: Mu-type opioid receptor (Homo sapiens) (UniProt P35372); experiment: mu (MOP) Eurofins-Cerep binding assay; set-up: ligand concentration 0.5 nM; settings: Compound concentration 10.0 uM
[10] = biological target: 3-hydroxy-3-methylglutaryl-coenzyme A reductase (Rattus norvegicus) (UniProt P51639); experiment: Inhibitor of HMGCOARED in the Eurofins Panlabs screen (BI) by Radioactive Assay; settings: Compound concentration 30.0 uM
Sequence of 3-hydroxy-3-methylglutaryl-coenzyme A reductase (Rattus norvegicus) (P51639 whole entry): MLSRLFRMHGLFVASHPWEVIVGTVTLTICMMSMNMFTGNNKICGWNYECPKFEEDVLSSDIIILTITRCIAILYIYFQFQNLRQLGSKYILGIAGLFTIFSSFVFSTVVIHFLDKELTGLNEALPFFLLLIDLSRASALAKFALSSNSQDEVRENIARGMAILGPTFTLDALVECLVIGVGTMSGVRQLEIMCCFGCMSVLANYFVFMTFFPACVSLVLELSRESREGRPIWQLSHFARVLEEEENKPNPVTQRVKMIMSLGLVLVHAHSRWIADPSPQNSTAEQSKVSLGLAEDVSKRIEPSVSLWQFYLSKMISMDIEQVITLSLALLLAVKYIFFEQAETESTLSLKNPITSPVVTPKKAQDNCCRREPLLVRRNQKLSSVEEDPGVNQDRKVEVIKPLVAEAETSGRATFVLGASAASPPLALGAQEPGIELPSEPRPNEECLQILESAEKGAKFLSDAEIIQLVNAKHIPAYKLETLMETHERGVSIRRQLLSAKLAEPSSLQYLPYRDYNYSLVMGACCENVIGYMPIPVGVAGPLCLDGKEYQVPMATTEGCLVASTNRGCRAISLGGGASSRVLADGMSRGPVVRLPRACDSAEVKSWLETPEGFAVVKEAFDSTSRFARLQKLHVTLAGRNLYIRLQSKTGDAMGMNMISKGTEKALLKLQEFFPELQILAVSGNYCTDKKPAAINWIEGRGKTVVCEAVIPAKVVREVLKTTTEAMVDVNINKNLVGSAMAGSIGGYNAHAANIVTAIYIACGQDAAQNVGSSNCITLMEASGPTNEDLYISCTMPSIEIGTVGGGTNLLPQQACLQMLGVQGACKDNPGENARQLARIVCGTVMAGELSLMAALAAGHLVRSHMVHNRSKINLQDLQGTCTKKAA

[11] = biological target: Platelet-activating factor receptor (Oryctolagus cuniculus) (UniProt G1TEI7); experiment: Activity against PAF/RB in the Eurofins Panlabs screen (BI) by Radioactive Assay; settings: Compound concentration 10.0 uM
[12] = biological target: Tyrosine-protein kinase Lck (Homo sapiens) (UniProt P06239); experiment: Inhibitor of LCK_CE in the Eurofins Cerep SafetyScreen44 (BI) by lanthanide chelation excitation (Cerep_2906); settings: Compound concentration 10.0 uM
[13] = biological target: 5-hydroxytryptamine receptor 1A (Rattus norvegicus) (UniProt P19327); experiment: Activity against 5HT1A/R in the Eurofins Panlabs screen (BI) by Radioactive Assay; settings: Compound concentration 10.0 uM
[14] = biological target: Histamine H1 receptor (Homo sapiens) (UniProt P35367); experiment: H1 Eurofins-Cerep binding assay; set-up: ligand concentration 1 nM; settings: Compound concentration 10.0 uM
[15] = biological target: Vasopressin V1a receptor (Homo sapiens) (UniProt P37288); experiment: V1a Eurofins-Cerep binding assay; set-up: ligand concentration 0.3 nM; settings: Compound concentration 10.0 uM
Sequence of Vasopressin V1a receptor (Homo sapiens) (P37288 whole entry, looked up): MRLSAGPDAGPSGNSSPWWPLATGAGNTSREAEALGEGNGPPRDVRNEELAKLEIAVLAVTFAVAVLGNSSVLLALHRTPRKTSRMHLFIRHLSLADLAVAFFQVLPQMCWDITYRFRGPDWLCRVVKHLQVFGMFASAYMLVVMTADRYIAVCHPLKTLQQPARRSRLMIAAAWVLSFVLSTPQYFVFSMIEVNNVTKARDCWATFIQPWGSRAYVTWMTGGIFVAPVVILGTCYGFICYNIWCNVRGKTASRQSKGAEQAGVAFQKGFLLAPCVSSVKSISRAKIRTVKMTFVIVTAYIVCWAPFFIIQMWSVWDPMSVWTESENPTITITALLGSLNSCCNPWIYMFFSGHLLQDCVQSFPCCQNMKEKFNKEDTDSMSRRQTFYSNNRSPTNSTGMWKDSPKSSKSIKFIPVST

[16] = biological target: Endothelin-1 receptor (Rattus norvegicus) (UniProt P26684); experiment: Activity against ETA/R in the Eurofins Panlabs screen (BI) by Radioactive Assay; settings: Compound concentration 10.0 uM
Sequence of Endothelin-1 receptor (Rattus norvegicus) (P26684 whole entry): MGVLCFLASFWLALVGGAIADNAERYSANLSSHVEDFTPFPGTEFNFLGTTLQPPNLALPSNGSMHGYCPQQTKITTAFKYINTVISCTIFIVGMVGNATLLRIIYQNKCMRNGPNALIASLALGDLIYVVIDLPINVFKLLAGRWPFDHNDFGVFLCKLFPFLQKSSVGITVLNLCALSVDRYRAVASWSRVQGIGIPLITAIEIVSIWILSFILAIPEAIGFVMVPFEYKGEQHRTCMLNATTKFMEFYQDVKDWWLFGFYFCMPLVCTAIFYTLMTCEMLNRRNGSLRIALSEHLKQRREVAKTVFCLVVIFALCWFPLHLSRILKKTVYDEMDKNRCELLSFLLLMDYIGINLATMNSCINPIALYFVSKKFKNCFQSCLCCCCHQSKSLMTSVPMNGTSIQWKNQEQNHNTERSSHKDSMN

[17] = biological target: Type-1 angiotensin II receptor (Oryctolagus cuniculus) (UniProt P34976); experiment: Activity against ATII/RB in the Eurofins Panlabs screen (BI) by Radioactive Assay; settings: Compound concentration 10.0 uM
Sequence of Type-1 angiotensin II receptor (Oryctolagus cuniculus) (P34976 whole entry): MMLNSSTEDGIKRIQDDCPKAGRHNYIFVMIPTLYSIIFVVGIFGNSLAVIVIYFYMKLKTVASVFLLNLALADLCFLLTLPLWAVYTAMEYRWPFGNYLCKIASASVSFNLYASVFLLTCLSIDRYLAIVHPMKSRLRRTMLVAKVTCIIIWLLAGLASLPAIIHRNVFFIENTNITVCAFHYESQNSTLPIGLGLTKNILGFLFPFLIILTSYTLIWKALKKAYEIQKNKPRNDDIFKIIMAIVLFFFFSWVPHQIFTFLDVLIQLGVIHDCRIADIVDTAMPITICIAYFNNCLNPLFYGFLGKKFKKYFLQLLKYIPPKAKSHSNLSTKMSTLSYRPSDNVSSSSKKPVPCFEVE

[18] = biological target: B2 bradykinin receptor (Cavia porcellus) (UniProt O70526); experiment: Activity against B2/GP in the Eurofins Panlabs screen (BI) by Radioactive Assay; settings: Compound concentration 10.0 uM
Sequence of B2 bradykinin receptor (Cavia porcellus) (O70526 whole entry): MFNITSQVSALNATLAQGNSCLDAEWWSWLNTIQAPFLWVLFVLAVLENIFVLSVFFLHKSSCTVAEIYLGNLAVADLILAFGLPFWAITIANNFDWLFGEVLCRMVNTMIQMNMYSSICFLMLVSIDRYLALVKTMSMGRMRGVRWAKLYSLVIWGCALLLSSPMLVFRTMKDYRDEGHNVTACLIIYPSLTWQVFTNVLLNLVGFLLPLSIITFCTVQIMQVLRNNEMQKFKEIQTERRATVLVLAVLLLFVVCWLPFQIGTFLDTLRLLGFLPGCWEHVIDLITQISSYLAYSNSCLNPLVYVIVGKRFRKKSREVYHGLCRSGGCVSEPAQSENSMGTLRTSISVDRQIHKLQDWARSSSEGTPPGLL

[19] = biological target: Muscarinic acetylcholine receptor (Rattus norvegicus) (UniProt P08482+P08483+P08485+P08911+P10980); experiment: Activity against MUSCARIN/NS in the Eurofins Panlabs screen (BI) by Radioactive Assay; assay type: protein assay; settings: Compound concentration 10.0 uM
[20] = biological target: L-type calcium channel (dihydropyridine site), Cav1.2 alpha-1C (Rattus norvegicus, UniProt P22002); experiment: Activity against CA+/DHPSI/RA in the Eurofins Panlabs screen (BI) by Radioactive Assay; settings: compound concentration 10 uM, read-out: % Ctrl
[21] = biological target: Transmembrane protein 97 (Cavia porcellus) (UniProt H0V073); experiment: Activity against SIGMA2/GP in the Eurofins Panlabs screen (BI) by Radioactive Assay; settings: Compound concentration 10.0 uM
Sequence of Transmembrane protein 97 (Cavia porcellus) (H0V073 as listed by the source): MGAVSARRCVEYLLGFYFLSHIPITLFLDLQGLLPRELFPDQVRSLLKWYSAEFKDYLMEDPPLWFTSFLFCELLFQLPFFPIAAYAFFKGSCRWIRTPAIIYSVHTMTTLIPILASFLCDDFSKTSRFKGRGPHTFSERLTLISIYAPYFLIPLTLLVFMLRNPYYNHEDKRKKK

[22] = biological target: Alpha-1B adrenergic receptor (Homo sapiens) (UniProt P35368); experiment: Activity against ALPHA1B/R in the Eurofins Panlabs screen (BI) by Radioactive Assay; settings: Rattus norvegicus; Compound concentration 10.0 uM
[23] = biological target: ATP-sensitive inward rectifier potassium channel 1 isoform X1 (Mesocricetus auratus) (UniProt A0A1U8CU73); experiment: Activity against K+/KATP/HA in the Eurofins Panlabs screen (BI) by Radioactive Assay; settings: Compound concentration 10.0 uM
[24] = biological target: Acetyl-coenzyme A synthetase, cytoplasmic (Homo sapiens) (UniProt Q9NR19); experiment: Inhibitor of ACOASYN in the Eurofins Panlabs screen (BI) by Radioactive Assay; settings: Compound concentration 100.0 uM
Sequence of Acetyl-coenzyme A synthetase, cytoplasmic (Homo sapiens) (Q9NR19 whole entry): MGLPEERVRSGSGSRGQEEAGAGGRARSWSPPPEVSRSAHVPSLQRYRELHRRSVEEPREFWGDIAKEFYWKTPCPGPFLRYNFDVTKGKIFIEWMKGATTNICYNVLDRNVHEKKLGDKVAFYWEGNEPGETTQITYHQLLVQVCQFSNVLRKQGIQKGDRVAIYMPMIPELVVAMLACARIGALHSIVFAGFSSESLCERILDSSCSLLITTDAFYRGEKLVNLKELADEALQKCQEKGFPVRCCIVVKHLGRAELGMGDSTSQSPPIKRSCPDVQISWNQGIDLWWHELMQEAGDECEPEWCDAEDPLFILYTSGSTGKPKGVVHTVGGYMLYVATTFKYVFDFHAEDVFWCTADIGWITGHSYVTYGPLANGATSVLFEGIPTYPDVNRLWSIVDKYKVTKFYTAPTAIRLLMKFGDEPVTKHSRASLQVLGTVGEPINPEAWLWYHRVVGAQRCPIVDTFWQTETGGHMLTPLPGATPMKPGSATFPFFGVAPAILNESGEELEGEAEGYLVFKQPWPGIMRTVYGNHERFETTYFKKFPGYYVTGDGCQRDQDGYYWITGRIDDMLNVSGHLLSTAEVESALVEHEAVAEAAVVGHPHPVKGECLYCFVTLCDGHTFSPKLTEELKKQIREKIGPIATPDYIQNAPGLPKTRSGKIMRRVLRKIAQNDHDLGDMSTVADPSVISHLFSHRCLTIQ

[25] = biological target: D(2) dopamine receptor (Homo sapiens) (UniProt P14416); experiment: Activity against D2HSPIP in the Eurofins Panlabs screen (BI); settings: Compound concentration 10.0 uM
[26] = biological target: Androgen receptor (Homo sapiens) (UniProt P10275); settings: Compound concentration 10.0 uM
Description: Activity against ANDROGEN/H in the Eurofins Cerep SafetyScreen44 (BI) by Radioactive Assay (Cerep_933)

[27] = biological target: Voltage-dependent N-type calcium channel subunit alpha-1B (Rattus norvegicus) (UniProt Q02294); experiment: Activity against CA+/N/RA in the Eurofins Panlabs screen (BI) by Radioactive Assay; settings: Compound concentration 10.0 uM
[28] = biological target: Cannabinoid receptor 2 (Homo sapiens) (UniProt P34972); experiment: Activity against CB2/PERIPH/H in the Eurofins Cerep SafetyScreen44 (BI) by Radioactive Assay (Cerep_37); settings: Compound concentration 10.0 uM
Sequence of Cannabinoid receptor 2 (Homo sapiens) (P34972 whole entry): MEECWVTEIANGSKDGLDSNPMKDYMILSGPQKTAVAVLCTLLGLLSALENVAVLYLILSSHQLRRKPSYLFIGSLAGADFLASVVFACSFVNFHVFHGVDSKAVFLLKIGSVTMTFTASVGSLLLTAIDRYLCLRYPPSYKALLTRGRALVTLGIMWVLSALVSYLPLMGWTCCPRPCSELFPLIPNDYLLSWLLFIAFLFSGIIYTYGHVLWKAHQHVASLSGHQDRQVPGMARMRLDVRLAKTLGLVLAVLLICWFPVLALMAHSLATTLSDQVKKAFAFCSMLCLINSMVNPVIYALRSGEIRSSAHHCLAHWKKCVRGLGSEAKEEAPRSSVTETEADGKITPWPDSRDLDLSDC

[29] = biological target: Galanin receptor type 1 (Rattus norvegicus) (UniProt Q62805); experiment: Activity against GALANIN/R in the Eurofins Panlabs screen (BI) by Radioactive Assay; settings: Compound concentration 10.0 uM
Sequence of Galanin receptor type 1 (Rattus norvegicus) (Q62805 whole entry): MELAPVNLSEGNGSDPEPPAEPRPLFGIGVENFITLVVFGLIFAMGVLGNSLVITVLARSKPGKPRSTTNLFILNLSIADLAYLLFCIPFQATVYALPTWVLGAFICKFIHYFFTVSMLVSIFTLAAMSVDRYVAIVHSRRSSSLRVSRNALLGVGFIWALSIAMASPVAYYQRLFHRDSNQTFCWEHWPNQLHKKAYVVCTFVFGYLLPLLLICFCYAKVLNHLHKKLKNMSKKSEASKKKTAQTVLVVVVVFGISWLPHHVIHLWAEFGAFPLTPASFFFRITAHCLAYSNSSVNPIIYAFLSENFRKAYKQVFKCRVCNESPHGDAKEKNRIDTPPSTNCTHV

[30] = biological target: Nitric oxide synthase, inducible (Mus musculus) (UniProt P29477); experiment: Activity against INOS in the Eurofins Panlabs screen (BI) by absorption of electromagnetic radiation; settings: Compound concentration 10.0 uM
[31] = species: Cavia porcellus; experiment: Activity against SIGMA/NS/GP in the Eurofins Panlabs screen (BI) by Radioactive Assay; settings: Compound concentration 10.0 uM
[32] = biological target: Gamma-aminobutyric acid receptor subunit alpha-1 (Rattus norvegicus) (UniProt P62813); experiment: Agonist activity in the Eurofins Panlabs screen (BI) against GABAA-AGSI/R by Scintillation counting; settings: Compound concentration 10.0 uM
[33] = biological target: Cholecystokinin receptor type A (Rattus norvegicus) (UniProt P30551); experiment: Activity against CCKA/R in the Eurofins Panlabs screen (BI) by Radioactive Assay; settings: Compound concentration 10.0 uM
[34] = biological target: Kappa-type opioid receptor (Homo sapiens) (UniProt P41145); experiment: kappa (KOP) Eurofins-Cerep binding assay; settings: Compound concentration 10.0 uM
[35] = biological target: Nitric oxide synthase 3 (Rattus norvegicus) (UniProt Q62600); experiment: Inhibitor of CNOS in the Eurofins Panlabs screen (BI) by Radioactive Assay; settings: Compound concentration 10.0 uM
[36] = biological target: Polyunsaturated fatty acid 5-lipoxygenase (Homo sapiens) (UniProt P09917); experiment: Activity against 5LO in the Eurofins Panlabs screen (BI) by Radioactive Assay; settings: Compound concentration 30.0 uM
[37] = biological target: Muscarinic acetylcholine receptor M2 (Homo sapiens) (UniProt P08172); experiment: M2 Eurofins-Cerep binding assay; set-up: ligand concentration 2 nM; settings: Compound concentration 10.0 uM

N=C(N)NCCC[C@@H](NC(=O)C(c1ccccc1)c1ccccc1)C(=O)NCc1ccc(CNC(N)=O)cc1
activity at 10 µM [1]: 79% (not active) | residual activity [2]: 90% | residual activity [3]: 110% | residual activity [4]: 91% | residual activity [5]: 92% | residual activity [6]: 91% | residual activity [7]: 114% | residual activity [8]: 93% | residual activity [9]: 71% | residual activity [10]: 98% | residual activity [11]: 91% | residual activity [12]: 86% | residual activity [13]: 81% | residual activity [14]: 75% | residual activity [15]: 29% | residual activity [16]: 88% | residual activity [17]: 99% | residual activity [18]: 115% | residual activity [19]: 87% | activity at 10 µM [20]: 82% (not active) | residual activity [21]: 109% | residual activity [22]: 114% | residual activity [23]: 76% | residual activity [24]: 100% | residual activity [25]: 97% | residual activity [26]: 91% | residual activity [27]: 110% | residual activity [28]: 91% | residual activity [29]: 91% | residual activity [30]: 99% | residual activity [31]: 100% | residual activity [32]: 104% | residual activity [33]: 87% | residual activity [34]: 30% | residual activity [35]: 104% | residual activity [36]: 97% | residual activity [37]: 90%
